In patent publication US11840686B2, “Modulation of prekallikrein (PKK) expression” (Ionis Pharmaceuticals, Inc., priority 2013, dated 2023):
Strand notation (5' to 3'): a small letter for the sugar, then the base; units joined by * are phosphorothioate-linked, units joined directly phosphodiester-linked; [ ] holds rarer units or linkages, { } end groups; capitals alone tell only the bases. e = 2'-O-(2-methoxyethyl) (MOE); k = constrained ethyl (cEt); [5mC] = 5-methylcytosine; d = 2'-deoxy (DNA)

Columns and labels:
human PKK mRNA [1] = experiment: Antisense inhibition of human PKK mRNA in HepaRG cells, 5,000 nM (Example 2); assay type: cell-based
In short: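 HepaRG cells (20,000/well) electroporated with 5,000 nM MOE gapmer (phosphorothioate backbone, 5-methylcytosines) and harvested after ~24 h. PKK mRNA measured by qRT-PCR with primer probe set RTS3454, normalized to RIBOGREEN total RNA; percent inhibition versus untreated cells.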

human PKK mRNA [2] = experiment: Dose-dependent antisense inhibition of human PKK in HepaRG cells, 0.19-5.00 uM (Example 5); assay type: cell-based
In short: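 HepaRG cells (20,000/well) were electroporated with antisense oligonucleotide at 0.19, 0.56, 1.67 and 5.00 μM and treated for about 16 hours. PKK mRNA was quantified by qRT-PCR with primer probe set RTS3454, normalised to RIBOGREEN total RNA, and IC50 was derived per oligonucleotide.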

human PKK mRNA [3] = experiment: Human PKK mRNA in liver of human KLKB1 transgenic mice (Example 7); assay type: in vivo; settings: twice a week for 3 weeks
Procedure: (§1) Transgenic mice containing a 37,390 base pair fragment of the human KLKB1 gene sequence (chromosome 4: position 187148672-187179625, accession no: NC_000004.11) were treated with ISIS antisense oligonucleotides selected from studies described above, which were evaluated for efficacy in this model.
(§2) Groups of transgenic mice were injected subcutaneously twice a week for 3 weeks with 2.5 mg/kg/week, 5.0 mg/kg/week, 10 mg/kg/week or 20 mg/kg/week of ISIS 546232, ISIS 546251, ISIS 546254, ISIS 546343, ISIS 546828, ISIS 547455, ISIS 547457, ISIS 547927, and ISIS 548048. One group of transgenic mice was injected subcutaneously twice a week for 3 weeks with PBS. Mice were euthanized 48 hours after the last dose, and organs and plasma were harvested for further analysis.
To evaluate the effect of ISIS oligonucleotides on target reduction, RNA was extracted from liver tissue for real-time PCR analysis of human PKK. Results are presented as percent inhibition of PKK mRNA, relative to PBS control.

PKK protein = experiment: Plasma PKK protein levels in human KLKB1 transgenic mice (Example 7); assay type: in vivo; settings: plasma, twice a week for 3 weeks
Procedure: as §1, §2
Plasma PKK protein levels were evaluated in all groups. Results are presented as percent inhibition of PKK protein, relative to PBS control.

PKK mRNA = PKK mRNA in cynomolgus monkey liver (Example 8); assay type: in vivo; settings: 40 mg/kg s.c., loading then weekly to week 13; day 87 or 88, 48 h after final dose
Procedure: Cynomolgus monkeys were treated with ISIS antisense oligonucleotides selected from studies described above. Antisense oligonucleotide efficacy and tolerability were evaluated. The human antisense oligonucleotides tested are cross-reactive with the rhesus genomic sequence (GENBANK Accession No. NW_001118167.1 truncated from nucleotides 2358000 to 2391000 and designated herein as SEQ ID NO: 18).
On day 87 or 88, 48 hours after the final dose, RNA was extracted from liver tissue for real-time PCR analysis of PKK using primer probe set RTS3455 (forward sequence […], designated herein as SEQ ID NO: 23; reverse sequence […], designated herein as SEQ ID NO: 24; probe sequence […], designated herein as SEQ ID NO: 25). The results were normalized to the housekeeping gene, Cyclophilin. Results are presented as percent inhibition of PKK mRNA, relative to PBS control.

human PKK mRNA [4] = experiment: Antisense inhibition of human PKK mRNA in HepaRG cells, 1,000 nM, MOE/deoxy/cEt oligonucleotides (Example 3); assay type: cell-based; settings: HepaRG cells, electroporation with 1,000 nM antisense oligonucleotide, approximately 24 hours, primer probe set RTS3454, relative to untreated control cells
In short: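 HepaRG cells at 20,000 per well electroporated with 1,000 nM 16-mer MOE/cEt/deoxy gapmers (phosphorothioate, 5-methylcytosine). After about 24 h, PKK mRNA measured by qRT-PCR with primer probe set RTS3454, normalized to RIBOGREEN total RNA. Reported as percent inhibition versus untreated cells.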

human PKK mRNA [5] = experiment: Dose-dependent antisense inhibition of human PKK in HepaRG cells, 0.11-3.00 uM (Example 6); assay type: cell-based; settings: electroporation, approx. 16 hours, relative to untreated control cells
In short: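 HepaRG cells were electroporated with antisense oligonucleotide at 0.11, 0.33, 1.00 or 3.00 μM. After about 16 h, PKK mRNA was quantified by qRT-PCR with primer probe set RTS3454 and normalized to total RNA by RIBOGREEN. IC50 was derived from the dose series.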

[6] = Table 34, HepaRG, electroporation, ~16 h
[7] = HepaRG cells, electroporation, approximately 16 hours, Table 39

| Substance | % inhibition of PKK mRNA in the transgenic mice liver relative to the PBS control (human PKK mRNA [3]; 2.5 mg/kg/week sc) | % inhibition of PKK mRNA in the transgenic mice liver relative to the PBS control (human PKK mRNA [3]; 5 mg/kg/week sc) | % inhibition of PKK mRNA in the transgenic mice liver relative to the PBS control (human PKK mRNA [3]; 10 mg/kg/week sc) | % inhibition of PKK mRNA in the transgenic mice liver relative to the PBS control (human PKK mRNA [3]; 20 mg/kg/week sc) | % inhibition of PKK protein levels in the transgenic mice relative to the PBS control (PKK protein; 2.5 mg/kg/week sc) | % inhibition of PKK protein levels in the transgenic mice relative to the PBS control (PKK protein; 5 mg/kg/week sc) | % inhibition of PKK protein levels in the transgenic mice relative to the PBS control (PKK protein; 10 mg/kg/week sc) | % inhibition of PKK protein levels in the transgenic mice relative to the PBS control (PKK protein; 20 mg/kg/week sc) | % inhibition of PKK mRNA in the cynomolgus monkey liver relative to the PBS control (PKK mRNA) | percent inhibition of PKK mRNA, 0.11 μM (human PKK mRNA [5]) | percent inhibition of PKK mRNA, 0.33 μM (human PKK mRNA [5]) | percent inhibition of PKK mRNA, 1.00 μM (human PKK mRNA [5]) | percent inhibition of PKK mRNA, 3.00 μM (human PKK mRNA [5]) | also measured |
| --- | --- | --- | --- | --- | --- | --- | --- | --- | --- | --- | --- | --- | --- | --- |
| 546828 (eA*e[5mC]*eA*eG*eT*dA*dT*d[5mC]*dA*d[5mC]*dT*dG*dT*dA*d[5mC]*eT*eA*eG*eT*eT) [compound 546828] | 77% | 62% | 32% | 83% | 0% | 25% | 36% | 93% | 45% |  |  |  |  | % inhibition (human PKK mRNA [1]; Table 13, human PKK mRNA in HepaRG cells, 5-10-5 gapmers): 95%; percent inhibition of PKK at 5.00 μM (human PKK mRNA [2]; HepaRG cells, electroporation, approximately 16 hours, Table 41): 97%; percent inhibition of PKK at 0.19 0μM (human PKK mRNA [2]; 0.19 0μM, HepaRG cells, electroporation, approximately 16 hours, Table 41): 0%; percent inhibition of PKK at 0.56 0μM (human PKK mRNA [2]; 0.56 0μM, HepaRG cells, electroporation, approximately 16 hours, Table 41): 64%; percent inhibition of PKK at 1.67 1μM (human PKK mRNA [2]; 1.67 1μM, HepaRG cells, electroporation, approximately 16 hours, Table 41): 89%; IC50 (human PKK mRNA [2]; 4 point dose response, HepaRG cells, Table 41): 200 nM; percent inhibition of PKK at 0.19 μM (human PKK mRNA [2]; [6]): 39%; percent inhibition of PKK at 0.56 μM (human PKK mRNA [2]; [6]): 58%; percent inhibition of PKK at 1.67 μM (human PKK mRNA [2]; [6]): 87%; percent inhibition of PKK at 5.00 μM (human PKK mRNA [2]; [6]): 93%; IC50 (human PKK mRNA [2]; Table 34, PKK mRNA, HepaRG, electroporation, ~16 h): 300 nM |
| 547457 (antisense eA*eA*eG*eG*e[5mC]*dG*dA*dT*dA*dT*d[5mC]*dA*dT*dG*dA*eT*eT*e[5mC]*e[5mC]*e[5mC]) [compound 547457] | 0% | 69% | 45% | 62% | 0% | 4% | 31% | 60% | 89% |  |  |  |  | % inhibition (human PKK mRNA [1]; Table 9 experiment, HepaRG cells, 20,000 cells per well, electroporation with 5,000 nM antisense oligonucleotide, approx. 24 hours, PKK mRNA by RT-PCR (RTS3454), relative to untreated control cells): 89%; % inhibition (human PKK mRNA [1]; Table 10 experiment, HepaRG cells, 20,000 cells per well, electroporation with 5,000 nM antisense oligonucleotide, approx. 24 hours, PKK mRNA by RT-PCR (RTS3454), relative to untreated control cells): 92%; percent inhibition of PKK at 0.19 μM (human PKK mRNA [2]; [7]): 41%; percent inhibition of PKK at 0.56 μM (human PKK mRNA [2]; [7]): 65%; percent inhibition of PKK at 1.67 μM (human PKK mRNA [2]; [7]): 80%; percent inhibition of PKK at 5.00 μM (human PKK mRNA [2]; [7]): 85%; IC50 (human PKK mRNA [2]; 4 point dose response, HepaRG cells, Table 39): 300 nM; percent inhibition of PKK mRNA, 0.19 μM (human PKK mRNA [2]; HepaRG cells, 0.19 μM antisense oligonucleotide): 33%; percent inhibition of PKK mRNA, 0.56 μM (human PKK mRNA [2]; HepaRG cells, 0.56 μM antisense oligonucleotide): 42%; percent inhibition of PKK mRNA, 1.67 μM (human PKK mRNA [2]; HepaRG cells, 1.67 μM antisense oligonucleotide): 70%; percent inhibition of PKK mRNA, 5.00 μM (human PKK mRNA [2]; HepaRG cells, 5.00 μM antisense oligonucleotide): 83%; IC50 (human PKK mRNA [2]; HepaRG cells, 0.19-5.00 μM): 600 nM |
| 547927 (eA*eT*kG*dG*dT*d[5mC]*d[5mC]*dG*dA*d[5mC]*dA*d[5mC]*dA*k[5mC]*kA*eA) [compound 547927] | 35% | 52% | 93% | 71% | 25% | 21% |  | 80% | 54% | 56% | 64% | 92% | 88% | % inhibition (human PKK mRNA [4]; experiment of Table 23): 79% |
| 548048 (e[5mC]*eG*kA*dT*dA*dT*d[5mC]*dA*dT*dG*dA*dT*dT*k[5mC]*k[5mC]*e[5mC]) [compound 548048] | 7% | 77% | 72% | 80% | 23% | 70% | 89% | 98% | 95% | 49% | 66% | 86% | 92% | % inhibition (human PKK mRNA [4]; experiment of Table 24): 84% |
